Columns and labels:
Experiment in all cases: relative viability (nuclei count vs DMSO), 5 days (fraction); higher = more cells survive
Sorafenib + Foretinib = compound: CNC(=O)c1cc(Oc2ccc(NC(=O)Nc3ccc(Cl)c(C(F)(F)F)c3)cc2)ccn1 [Sorafenib] + COc1cc2c(Oc3ccc(NC(=O)C4(C(=O)Nc5ccc(F)cc5)CC4)cc3F)ccnc2cc1OCCCN1CCOCC1 [Foretinib] (partner 0.25 µM)
Procedure, shortened: (§1)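 A single step with final 0.05% Triton X-100, 1% formaldehyde and 1 ug/ml Hoechst fixed the cells and stained nuclei 5 days after treatment. Lung cancer cell lines in 1536-well plates had been treated by pin tool the day after seeding with one drug alone or a fixed anchor-drug dose plus five library-drug doses (not always all listed) in √10 steps, and nuclei were counted on 4× images. Relative viability is the ratio of nuclei in treated wells to nuclei in vehicle wells, taken as the median of duplicate plates.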

Sorafenib + Linsitinib = compound: CNC(=O)c1cc(Oc2ccc(NC(=O)Nc3ccc(Cl)c(C(F)(F)F)c3)cc2)ccn1 [Sorafenib] + C[C@]1(O)C[C@@H](c2nc(-c3ccc4ccc(-c5ccccc5)nc4c3)c3c(N)nccn32)C1 [Linsitinib] (partner 1 µM)
Procedure, shortened: as §1

Sorafenib + Tozasertib = compound: CNC(=O)c1cc(Oc2ccc(NC(=O)Nc3ccc(Cl)c(C(F)(F)F)c3)cc2)ccn1 [Sorafenib] + Cc1cc(Nc2cc(N3CCN(C)CC3)nc(Sc3ccc(NC(=O)C4CC4)cc3)n2)n[nH]1 [Tozasertib] (partner 0.1 µM)
Procedure, shortened: as §1

Sorafenib + AZD7762 = compound: CNC(=O)c1cc(Oc2ccc(NC(=O)Nc3ccc(Cl)c(C(F)(F)F)c3)cc2)ccn1 [Sorafenib] + NC(=O)Nc1cc(-c2cccc(F)c2)sc1C(=O)N[C@H]1CCCNC1 [AZD7762] (partner 0.2 µM)
Procedure, shortened: as §1

Sorafenib + Olaparib = compound: CNC(=O)c1cc(Oc2ccc(NC(=O)Nc3ccc(Cl)c(C(F)(F)F)c3)cc2)ccn1 [Sorafenib] + O=C(c1cc(Cc2n[nH]c(=O)c3ccccc23)ccc1F)N1CCN(C(=O)C2CC2)CC1 [Olaparib] (partner 8 µM)
Procedure, shortened: as §1

Row | Cell Line | relative viability (Sorafenib + Foretinib; first compound 0.08 µM) | relative viability (Sorafenib + Foretinib; first compound 2.53 µM) | relative viability (Sorafenib + Foretinib; first compound 8 µM) | relative viability (Sorafenib + Linsitinib; first compound 0.08 µM) | relative viability (Sorafenib + Linsitinib; first compound 0.253 µM) | relative viability (Sorafenib + Linsitinib; first compound 2.53 µM) | relative viability (Sorafenib + Linsitinib; first compound 8 µM) | relative viability (Sorafenib + Tozasertib; first compound 0.08 µM) | relative viability (Sorafenib + Tozasertib; first compound 0.253 µM) | relative viability (Sorafenib + Tozasertib; first compound 2.53 µM) | relative viability (Sorafenib + Tozasertib; first compound 8 µM) | relative viability (Sorafenib + AZD7762; first compound 0.08 µM) | relative viability (Sorafenib + AZD7762; first compound 0.253 µM) | relative viability (Sorafenib + AZD7762; first compound 2.53 µM) | relative viability (Sorafenib + Olaparib; first compound 0.08 µM) | relative viability (Sorafenib + Olaparib; first compound 0.253 µM) | relative viability (Sorafenib + Olaparib; first compound 2.53 µM) | relative viability (Sorafenib + Olaparib; first compound 8 µM) | relative viability (Sorafenib + Foretinib; first compound 0.253 µM) | relative viability (Sorafenib + AZD7762; first compound 8 µM)
1 | 201T | 1.23 | 1.11 | 0.884 | 1 | 0.985 | 1.02 | 1.06 | 0.964 | 0.925 | 0.955 | 0.827 | 0.575 | 0.554 | 0.449 | 0.812 | 0.88 | 0.877 | 0.843 | – | –
2 | A-427 | 1.24 | 0.94 | 0.754 | 1.07 | 1.06 | 1.03 | 0.987 | 0.21 | 0.261 | 0.217 | 0.132 | 0.831 | 0.675 | 0.715 | 0.71 | 0.771 | 0.733 | 0.635 | 0.989 | 0.541
3 | ABC-1 | 1.06 | 1.38 | 0.392 | 0.837 | 0.893 | 0.918 | 0.956 | 0.227 | 0.219 | 0.214 | 0.185 | 1.09 | 0.714 | 0.876 | – | 0.565 | 0.693 | 0.4 | 1.11 | 0.68
4 | BEN | 0.755 | 0.811 | 0.526 | 1.02 | 0.914 | 0.886 | 0.693 | 0.519 | 0.423 | 0.536 | 0.482 | – | 0.493 | 0.741 | 1.02 | 1.1 | 1.01 | 0.791 | 0.518 | 0.611
5 | CAL-12T | 1.39 | 1.03 | 0.868 | 0.889 | – | 0.834 | 0.656 | 0.354 | 0.284 | 0.271 | 0.219 | 0.642 | 0.528 | 0.616 | 0.81 | 0.616 | 0.639 | 0.602 | 1.05 | 0.432
6 | COR-L23 | 1.13 | 0.937 | 0.765 | 1.05 | 0.814 | 0.866 | 0.531 | 0.24 | 0.185 | 0.113 | 0.079 | – | – | – | 0.336 | 0.372 | 0.346 | 0.233 | 0.982 | –
7 | COR-L 105 | 1.32 | 1.18 | 1.03 | 0.853 | 0.926 | 0.906 | 0.985 | 0.405 | 0.435 | 0.322 | 0.411 | – | – | – | 0.697 | 0.72 | 0.78 | 0.718 | 0.982 | –
8 | ChaGo-K-1 | 0.961 | 0.9 | – | – | – | – | – | 0.229 | 0.235 | 0.215 | 0.192 | 0.899 | 0.796 | 0.845 | 0.41 | 0.388 | 0.441 | 0.361 | 0.965 | 0.809
9 | EKVX | 1.09 | 0.672 | 0.606 | 1.12 | 0.983 | 0.989 | 0.912 | 0.382 | 0.419 | 0.467 | 0.212 | 0.837 | 0.638 | 0.627 | 0.91 | 0.76 | 0.796 | 0.682 | 0.748 | 0.57
10 | EMC-BAC-2 | 1.02 | 1 | 0.658 | 0.821 | 0.788 | 0.838 | 0.771 | 0.297 | 0.186 | 0.266 | 0.295 | 1.12 | 0.982 | 1.15 | 0.473 | 0.387 | 0.45 | 0.461 | 0.819 | 1.06
11 | EPLC-272H | 0.702 | 0.788 | 0.508 | 1.31 | 1.09 | 1.11 | – | 0.331 | 0.389 | 0.389 | 0.293 | 0.247 | 0.176 | – | 1.11 | 0.838 | 1.02 | 0.283 | 0.716 | 0.209
12 | H3255 | 1.06 | 0.829 | 0.567 | – | 0.71 | 0.903 | 0.611 | 0.588 | 0.458 | 0.72 | 0.482 | 1.02 | 0.799 | 0.937 | 0.574 | 0.532 | 0.536 | 0.438 | – | 0.716
13 | HARA | 0.967 | 0.898 | 0.889 | 1.13 | 0.859 | 0.94 | 0.927 | 0.0919 | 0.137 | 0.146 | 0.1 | 0.317 | 0.554 | 0.217 | 0.868 | 0.794 | 0.391 | 0.478 | 0.916 | 0.315
14 | HCC-15 | 0.999 | 1 | 0.869 | – | 0.873 | 0.846 | 0.554 | 0.443 | 0.438 | 0.372 | 0.179 | 1.18 | 1.17 | 1.05 | 0.701 | 0.641 | 0.575 | 0.442 | 0.933 | 0.951
15 | HCC-44 | – | – | – | 0.68 | 0.629 | – | 0.658 | 0.884 | 0.688 | 0.858 | 0.773 | 0.99 | 0.938 | 0.909 | 0.936 | 0.876 | 0.92 | 0.953 | – | –
16 | HCC-78 | 0.632 | 0.801 | 0.905 | 0.562 | 0.42 | 0.457 | 0.573 | 0.391 | 0.371 | 0.492 | 0.493 | 0.846 | 0.496 | 0.863 | 0.891 | 0.953 | 0.909 | 0.819 | 0.537 | 0.768
17 | HCC-366 | 0.927 | 0.937 | 0.94 | 0.66 | 0.628 | 0.732 | 0.463 | 0.109 | 0.083 | 0.054 | 0.0297 | 0.306 | 0.283 | 0.181 | 0.354 | 0.319 | 0.287 | 0.268 | 0.957 | 0.0837

Reference: the supplement of paper PMC10307832
